Laboratory results as given in patent US8871796B2, “Diaryl ether derivatives as notch sparing gamma secretase inhibitors” (Merck Sharp & Dohme Corp., priority 2009, dated 2014).
Where two headings read alike, the source gives them in different places.

Assay: APP processing: AlphaLisa assay of secreted Aβ40 and Aβ42 from SP4CT cells
Assay type: cell-based
Details: Homo sapiens, SH-SY5Y cells expressing amyloid β protein (SP4CT cells)
Outline: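 Media from compound-treated SP4CT cells (SH-SY5Y expressing amyloid β protein) was assayed by AlphaLisa. Donor beads carried biotinylated 4G8 anti-Aβ antibody; acceptor beads carried G210 (Aβ40) or 12F4 (Aβ42) in separate plates, with luminescence proportional to peptide abundance.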

[1] = read-out: IC50, inhibition of production of Aβ40 peptide
[2] = read-out: IC50, inhibition of production of Aβ42 peptide

| SMILES | IC50 [1] | IC50 [2] |
| --- | --- | --- |
| CCn1nc(-c2cccc(C(C)(C)NS(=O)(=O)CC(F)(F)F)c2)c(Cl)c1Oc1ccc(C(F)(F)F)cc1 [Example 112, N-[2-(3-{4-chloro-1-ethyl-5-[4-(trifluoromethyl)phenoxy]-1H-pyrazol-3-yl}phenyl)propan-2-yl]-2,2,2-trifluoroethanesulfonamide] | < 200 nM | < 200 nM |
| CCn1nc(Oc2ccc(C(F)(F)F)cc2)cc1-c1cccc(C2(NS(=O)(=O)NCCC(F)(F)F)COC2)c1 [Example 102] | < 200 nM | < 200 nM |
| CCn1nc(-c2cccc(C(C)(C)NS(=O)(=O)CC(F)(F)F)c2)cc1Oc1ccc(CNCC2CCOCC2)cc1 [Example 91, N-(1-{3-[1-ethyl-5-(4-{[(tetrahydro-2H-pyran-4-ylmethyl)amino]methyl}phenoxy)-1H-pyrazol-3-yl]phenyl}-1-methylethyl)-2,2,2-trifluoroethanesulfonamide] | < 200 nM | < 200 nM |
| O=S(=O)(CC(F)(F)F)NC1(c2cccc(-c3cc(Oc4ccc(C(F)(F)F)cc4)n(CC4CCCCO4)n3)c2)COC1 (centres unmarked) [Example 140] | < 200 nM | < 200 nM |
| CCn1nc(-c2cccc(C(C)(C)NS(=O)(=O)CC3CCC3)c2)cc1Oc1ccc(C(F)(F)F)cc1 [Example 2, 1-cyclobutyl-N-[1-(3-{1-ethyl-5-[4-(trifluoromethyl)phenoxy]-1H-pyrazol-3-yl}phenyl)-1-methylethyl]methanesulfonamide] | < 200 nM | < 200 nM |
| CCn1nc(-c2cccc(C(C)(C)NS(=O)(=O)CC(F)(F)F)c2)cc1Oc1ccc(C#N)cc1 [Example 108, N-(1-{3-[5-(4-cyanophenoxy)-1-ethyl-1H-pyrazol-3-yl]phenyl}-1-methylethyl)-2,2,2-trifluoroethanesulfonamide] | < 200 nM | < 200 nM |
| CCn1nc(-c2cccc(C(C)(C)NS(=O)(=O)CC(F)(F)F)c2)cc1Oc1ccc(CNCc2cccnc2)cc1 [Example 94, N-(1-{3-[1-ethyl-5-(4-{[(pyridin-3-ylmethyl)amino]methyl}phenoxy)-1H-pyrazol-3-yl]phenyl}-1-methylethyl)-2,2,2-trifluoroethanesulfonamide] | < 200 nM | < 200 nM |
| CCCNS(=O)(=O)NC1(c2cccc(-c3cc(Oc4ccc(C(F)(F)F)cc4)nn3CC)c2)CC1 [Example 33, N-[1-(3-{1-ethyl-3-[4-(trifluoromethyl)phenoxy]-1H-pyrazol-5-yl}phenyl)cyclopropyl]-N′-propylsulfamide] | < 200 nM | < 200 nM |
| CCCNS(=O)(=O)NC1Cc2ccc(-c3cc(Oc4ccc(C(F)(F)F)cc4)nn3CC)cc2C1 (centres unmarked) [Example 123, N-(5-{1-ethyl-3-[4-(trifluoromethyl)phenoxy]-1H-pyrazol-5-yl}-2,3-dihydro-1H-inden-2-yl)-N′-propylsulfamide] | < 200 nM | < 200 nM |
| CCCNS(=O)(=O)NC1(c2cccc(-c3cc(Oc4ccc(C(F)(F)F)cc4)n(CC)n3)c2)CC1 [Example 46, N-[1-(3-{1-ethyl-5-[4-(trifluoromethyl)phenoxy]-1H-pyrazol-3-yl}phenyl)cyclopropyl]-N′-propylsulfamide] | < 200 nM | < 200 nM |
| CCn1nc(-c2cccc(C3(NS(=O)(=O)CC4CCC4)CC3)c2)cc1Oc1ccc(C(F)(F)F)cc1 [Example 37, 1-cyclobutyl-N-[1-(3-{1-ethyl-5-[4-(trifluoromethyl)phenoxy]-1H-pyrazol-3-yl}phenyl)cyclopropyl] methanesulfonamide] | < 200 nM | < 200 nM |
| CCn1nc(Oc2ccc(C(F)(F)F)cc2)cc1-c1cccc(C2(NS(=O)(=O)CC(F)(F)F)CC2)c1 [Example 31, N-[1-(3-{1-ethyl-3-[4-(trifluoromethyl)phenoxy]-1H-pyrazol-5-yl}phenyl)cyclopropyl]-2,2,2-trifluoroethanesulfonamide] | < 200 nM | < 200 nM |
| CCn1nc(-c2cccc(C3(NS(=O)(=O)NC4CCC(F)(F)C4)COC3)c2)cc1Oc1ccc(C(F)(F)F)cc1 (centres unmarked) [Example 99] | < 200 nM | < 200 nM |
| CCn1nc(-c2cccc(C3(NS(=O)(=O)CC(F)(F)F)CC3)c2)c(Cl)c1Oc1ccc(C(F)(F)F)cc1 [Example 111, N-[1-(3-{4-chloro-1-ethyl-5-[4-(trifluoromethyl)phenoxy]-1H-pyrazol-3-yl}phenyl)cyclopropyl]-2,2,2-trifluoroethanesulfonamide] | < 200 nM | < 200 nM |
| CCn1nc(-c2cccc(C(C)(C)NS(=O)(=O)CC(F)(F)F)c2)cc1Oc1ccc(CNCc2ccncc2)cc1 [Example 89, N-(1-{3-[1-ethyl-5-(4-{[(pyridin-4-ylmethyl)amino]methyl}phenoxy)-1H-pyrazol-3-yl]phenyl}-1-methylethyl)-2,2,2-trifluoroethanesulfonamide] | < 200 nM | < 200 nM |
| CCn1nc(Oc2ccc(C(F)(F)F)cc2)cc1-c1cccc(C2(NS(=O)(=O)NC3CCCC3)CC2)c1 [Example 29, N-cyclopentyl-N′-[1-(3-{1-ethyl-3-[4-(trifluoromethyl)phenoxy]-1H-pyrazol-5-yl}phenyl)cyclopropyl] sulfamide] | < 200 nM | < 200 nM |
| CCn1nc(-c2cccc(C(C)(C)NS(=O)(=O)CC(F)(F)F)c2)cc1Oc1ccc(CN2CCN(C(C)=O)CC2)cc1 [Example 93, N-{1-[3-(5-{4-[(4-acetylpiperazin-1-yl)methyl]phenoxy}-1-ethyl-1H-pyrazol-3-yl)phenyl]-1-methylethyl}-2,2,2-trifluoroethanesulfonamide] | < 200 nM | < 200 nM |
| CCn1nc(-c2cccc(C(C)(C)NS(=O)(=O)CC(F)(F)F)c2)cc1Oc1ccc(C(O)C(F)(F)F)cc1 (centres unmarked) [Example 71, N-[1-(3-{1-ethyl-5-[4-(2,2,2-trifluoro-1-hydroxyethyl)phenoxy]-1H-pyrazol-3-yl}phenyl)-1-methylethyl]-2,2,2-trifluoroethanesulfonamide] | < 200 nM | < 200 nM |
| CCn1nc(Oc2ccc(C(F)(F)F)cc2)cc1-c1ccc2c(c1)CC(NS(=O)(=O)NCC(F)(F)F)C2 (centres unmarked) [Example 120, (N-[5-(1-Ethyl-3-(4-trifluoromethylphenoxy)-1H-pyrazol-5-yl)-2,3-dihydro-1H-inden-2-yl]-N′-(2,2,2-trifluoroethyl)sulfuric diamide)] | < 200 nM | < 200 nM |
| CCCNS(=O)(=O)NC(C)(C)c1cccc(-c2cc(Oc3ccc(C(F)(F)F)cc3)nn2CC)c1 [Example 23, N-[1-(3-{1-ethyl-3-[4-(trifluoromethyl)phenoxy]-1H-pyrazol-5-yl}phenyl)-1-methylethyl]-N′-propylsulfamide] | < 200 nM | < 200 nM |
| CCn1nc(-c2cccc(C(C)(C)NS(=O)(=O)CC(F)(F)F)c2)cc1Oc1ccc(C(=O)NCC2CCCO2)cc1 (centres unmarked) [Example 74, 4-({1-ethyl-3-[3-(1-methyl-1-{[(2,2,2-trifluoroethyl)sulfonyl]amino}ethyl)phenyl]-1H-pyrazol-5-yl}oxy)-N-(tetrahydrofuran-2-ylmethyl)benzamide] | < 200 nM | < 200 nM |
| CCn1nc(-c2cccc(C(C)(C)NS(=O)(=O)CC(F)(F)F)c2)cc1Oc1ccccc1 [Example 57, N-{1-[3-(1-ethyl-5-phenoxy-1H-pyrazol-3-yl)phenyl]-1-methylethyl}-2,2,2-trifluoroethanesulfonamide] | < 200 nM | < 200 nM |
